Measured values reported in patent US8575119B2, “2′-chloroacetylenyl substituted nucleoside derivatives” (Enanta Pharmaceuticals, Inc., priority 2011, dated 2013).

Experiments:
HCV 1b genotype replicon = assay: HCV replicon assay, qRT-PCR, genotype 1b (SGR 11-7 replicon cell line); format: cell-based, HCV (strain Conl; conditions: Hepatitis C virus; Genotype-1b replicon, HCV RNA by qRT-PCR normalized to GAPDH RNA
Description: (§1) HCV replicon cell lines (kindly provided by R. Bartenschlager) isolated from colonies as described by Lohman et al. (Lohman et al. (1999) Science 285: 110-113, expressly incorporated by reference in its entirety) and used for all experiments. One of the HCV replicon cell lines (strain Conl, genotype 1b) has the nucleic acid sequence set forth in EMBL Accession No.: AJ242651, the coding sequence of which is from nucleotides 1801 to 8406. Another replicon cell line (strain H77, genotype 1a) was constructed as described by Yi et. al. (Yi et. al. (2004) Journal of Virology 78(15):7904-15). The coding sequences of the published HCV replicons were synthesized and subsequently assembled in plasmids using standard molecular biology techniques.
(§2) One replicon cell line (“SGR 11-7”) stably expresses HCV replicon RNA, genotype 1b, which consists of (i) the HCV 5′UTR fused to the first 12 amino acids of the capsid protein, (ii) the neomycin phosphotransferase gene (neo), (iii) the IRES from encephalomyocarditis virus (EMCV) and (iv) HCV […] to NS5B genes and the HCV 3′UTR. Another replicon cell line (“Huh-1a7”) described by Yi et. al. (Yi et. al. (2004) Journal of Virology 78(15):7904-15, expressly incorporated by reference in its entirety) stably expresses HCV replicon RNA, genotype 1a, which consists of (i) the HCV 5′UTR fused to the first 12 amino acids of the capsid protein, (ii) the HIV tat protein, (iii) the neomycin phosphotransferase gene (neo), (iv) the IRES from encephalomyocarditis virus (EMCV) and (vi) HCV NS3 to NS5B genes that harbor cell culture adaptive mutations (Q1067R, K1691R, S2204I) and the HCV 3′UTR.
(§3) These cell lines are maintained at 37° C., 5% CO2, 100% relative humidity in DMEM (Cat#11965-084, Invitrogen), with 10% fetal calf serum (“FCS”, Invitrogen), 1% non-essential amino acids (Invitrogen), 1% of Glutamax (Invitrogen), 1% of 100× penicillin/streptomycin (Cat#15140-122, Invitrogen) and Geneticin (Cat#10131-027, Invitrogen) at 0.75 mg/ml or 0.25 mg/ml for 11-7 and Huh-1a7 cells, respectively.
(§4) EC50 values of single agent compounds were determined by HCV RNA detection using quantitative RT-PCR, according to the manufacturer's instructions, with a TAQMAN® One-Step RT-PCR Master Mix Reagents Kit (Cat#AB 4309169, Applied Biosystems) on an ABI Model 7500 thermocycler. EC50 values of combinations are similarly determined by HCV RNA detection using quantitative RT-PCR. The TAQMAN primers to use for detecting and quantifying HCV RNA obtained from Integrated DNA Technologies. HCV RNA is normalized to GAPDH RNA levels in drug-treated cells, which is detected and quantified using the Human GAPDH Endogenous Control Mix (Applied Biosystems, AB 4310884E). Total cellular RNA is purified from 96-well plates using the RNAqueous 96 kit (Ambion, Cat#AM1812). Chemical agent cytotoxicity is evaluated using an MTS assay according to the manufacturer's directions (Promega).
(§5) The compounds of the present invention can be effective against the HCV 1a and 1b genotypes. It should also be understood that the compounds of the present invention can inhibit multiple genotypes of HCV. In one embodiment, compounds of the present invention are active against the 1a, 1b, 2a, 2b, 3a, 4a, and 5a genotypes. […] EC50 ranges against HCV 1a or 1b are as follows: A>1 μM; B 0.1-1 μM; C<0.1 μM.

HCV 1a genotype replicon = assay: HCV replicon assay, qRT-PCR, genotype 1a (Huh-1a7 replicon cell line); format: cell-based, HCV (strain H77; conditions: Hepatitis C virus; Genotype-1a replicon, HCV RNA by qRT-PCR normalized to GAPDH RNA
Description: as §1, §2, §3, §4, §5

Row | Compound | EC50 (HCV 1b genotype replicon) [µM] | EC50 (HCV 1a genotype replicon) [µM]
1 | C[C@H](NP(=O)(OC[C@H]1O[C@@H](n2ccc(=O)[nH]c2=O)[C@@](O)(C#CCl)C1O)Oc1cccc2ccccc12)C(=O)OC1CCCC1 (some centres unmarked) [Example 9] | 0.1 to 1 | 0.1 to 1
2 | C[C@H](N[P@@](=O)(OC[C@H]1O[C@@H](n2ccc(=O)[nH]c2=O)[C@@](O)(C#CCl)C1O)Oc1cccc2ccccc12)C(=O)OCC(C)(C)C (some centres unmarked) [Example 3] | 0.1 to 1 | 0.1 to 1
3 | CCCCCOC(=O)[C@H](C)NP(=O)(OC[C@H]1O[C@@H](n2ccc(=O)[nH]c2=O)[C@@](O)(C#CCl)C1O)Oc1cccc2ccccc12 (some centres unmarked) [Example 7] | 0.1 to 1 | 0.1 to 1
4 | C[C@H](N[P@](=O)(OC[C@H]1O[C@@H](n2ccc(=O)[nH]c2=O)[C@@](O)(C#CCl)C1O)Oc1cccc2ccccc12)C(=O)OCC(C)(C)C (some centres unmarked) [Example 4] | < 0.1 | < 0.1
5 | C[C@H](NP(=O)(OC[C@H]1O[C@@H](n2ccc(=O)[nH]c2=O)[C@@](O)(C#CCl)C1O)Oc1cccc2ccccc12)C(=O)OCc1ccccc1 (some centres unmarked) [Example 6] | 0.1 to 1 | 0.1 to 1
6 | CC(C)OC(=O)[C@H](C)NP(=O)(OC[C@H]1O[C@@H](n2ccc(=O)[nH]c2=O)[C@@](O)(C#CCl)C1O)Oc1cccc2ccccc12 (some centres unmarked) [Example 8] | > 1 | 0.1 to 1
7 | O=c1ccn([C@@H]2O[C@H](CO)C(O)C2(O)C#CCl)c(=O)[nH]1 (some centres unmarked) [Example 1] | > 1 | > 1
8 | COC(=O)[C@H](C)NP(=O)(OC[C@H]1O[C@@H](n2ccc(=O)[nH]c2=O)[C@@](O)(C#CCl)C1O)Oc1cccc2ccccc12 (some centres unmarked) [Example 2] | 0.1 to 1 | 0.1 to 1
9 | CCCCOC(=O)[C@H](C)NP(=O)(OC[C@H]1O[C@@H](n2ccc(=O)[nH]c2=O)[C@@](O)(C#CCl)C1O)Oc1cccc2ccccc12 (some centres unmarked) [Example 5] | 0.1 to 1 | 0.1 to 1
10 | C[C@H](NP(=O)(OC[C@H]1O[C@@H](n2ccc(=O)[nH]c2=O)C(O)(C#CCl)C1O)Oc1cccc2ccccc12)C(=O)OC1CCCCC1 (some centres unmarked) [Example 10] | > 1 | > 1
